Assay results from patent US12377083B2 (WUHAN LL SCIENCE AND TECHNOLOGY DEVELOPMENT CO., LTD., priority 2019, dated 2025).

Columns and labels:
[1] = In vitro metabolic stability, mouse liver microsomes; format: in vitro ADME; conditions: 1 mg/mL liver microsome protein, 37° C., read-out: Metabolism in mouse liver microsome T½ min
Method: (§1) The in vitro metabolic stability of the compounds disclosed herein was determined through incubation of liver microsomes of various species. A proper amount of test compound was added into a liver microsome reaction system (1 mg/mL liver microsome protein, 25 U/mL glucose-6 phosphate dehydrogenase, 1 mM NADP, 6 mM D-glucose 6-phosphate and 5 mM MgCl2), and then the mixture was incubated in a water bath kettle at 37° C. to start reaction. At each time point, 100 μL of the reaction system was added into a centrifuge tube containing 400 μL of internal standard working solution (containing a 200 ng/mL solution of dexamethasone, diclofenac, tolbutamide and labetalol in acetonitrile) precooled at 0° C. so as to stop the reaction, and the mixture was then centrifuged at 10,000 g for 10 min at 4° C. The supernatant was collected for LC-MS assay so as to obtain the values of in vitro metabolic half-life of the test compounds in liver microsomes of various species.

[2] = In vitro metabolic stability, human liver microsomes; format: in vitro ADME; conditions: 1 mg/mL liver microsome protein, 37° C., read-out: Metabolism in human liver microsome T½ min
Method: as §1

[3] = target: hLPAR1 (human lysophosphatidic acid receptor 1) (Homo sapiens, UniProt Q92633); test: FLIPR assay of intracellular calcium increase induced by activation of hLPAR1 expressed in CHO-K1 cells; format: cell-based; conditions: CHO-K1 cells expressing hLPAR1, agonist oleoyl-L-α-lysophosphatidic acid 1 μM; read-out: LPAR1 IC50
hLPAR1 (human lysophosphatidic acid receptor 1), sequence (Q92633 whole entry): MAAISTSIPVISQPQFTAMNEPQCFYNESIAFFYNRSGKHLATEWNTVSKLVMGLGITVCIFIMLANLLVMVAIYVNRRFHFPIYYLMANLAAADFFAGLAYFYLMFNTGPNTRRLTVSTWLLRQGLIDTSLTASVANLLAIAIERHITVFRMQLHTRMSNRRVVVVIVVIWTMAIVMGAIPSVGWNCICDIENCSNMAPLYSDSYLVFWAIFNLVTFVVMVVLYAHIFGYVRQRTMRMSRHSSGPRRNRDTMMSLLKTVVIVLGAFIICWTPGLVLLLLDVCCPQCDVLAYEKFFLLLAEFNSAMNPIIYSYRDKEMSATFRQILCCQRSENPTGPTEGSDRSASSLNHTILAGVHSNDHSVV
Method in brief: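 CHO-K1 cells expressing hLPAR1 were loaded with Fluo-4 AM for 1.0 h at 37° C, then preincubated 30 min at room temperature with compound. Oleoyl-LPA was added at 1 μM final, and calcium fluorescence was recorded by FLIPR for 2 min at 1-s intervals to assess antagonism.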

[4] = In vitro cytotoxicity assay in HepG2 cells, CCK-8 method; format: cell-based; conditions: human
Method in brief: (§2)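 Cells plated at 50,000/well, grown overnight to 80-90% confluence, then given fresh medium with graded compound or DMSO for 48 h at 37°C, 5% CO2. After PBS washes, CCK-8 added for 1.5 h at 37°C in the dark; OD450 read and CC50 calculated.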

[5] = system: A2058 (human melanoma cells); test: A2058 cell scratch (migration) assay with LPA; format: cell-based; conditions: 10 μM LPA, scratch area at 24 h
[6] = In vitro metabolic stability, rat liver microsomes; format: in vitro ADME; conditions: 1 mg/mL liver microsome protein, 37° C., read-out: Metabolism in rat liver microsome T½ min
Method: as §1

HepG2 cells = test: In vitro cytotoxicity assay in HepG2 cells, CCK-8 method; format: cell-based; conditions: 48 h
Method in brief: as §2

With `CN(C(=O)OCc1c(-c2ccc(O[C@H]3CCC[C@H](C(=O)O)C3)c(CF)n2)cnn1C)C1CCCC1` (racemic) [Compound 89] the half-life [1] was 3670 min, the half-life [2] was 449 min and the IC50 [3] was 50 to 300 nM. For the same molecule, the CC50 at 48 h [4] was 14.3 µM, the “Cell migration inhibition rate (%)” value [5] was “A (A: 50-70%)” and the half-life [6] was 57.5 min.
With `Cc1noc(-c2ccc(O[C@H]3CCC[C@H](C(=O)O)C3)cc2)c1COC(=O)N(C)C1CCCC1` (racemic) [Compound 4, (+/−)-(1S,3S)-3-(4-(4-(((cyclopentyl(methyl)carbamoyl)oxy)methyl)-3-methylisoxazol-5-yl)phenoxy)cyclohexane-1-carboxylic Acid] the half-life [1] was 167 min, the half-life [2] was 131 min and the CC50 at 48 h [4] was > 200 µM. For the same molecule, the half-life [6] was 13.1 min.
For `Cc1nsc(-c2ccc(O[C@H]3CCC[C@H](C(=O)O)C3)cc2)c1COC(=O)N(C)C1CCCC1` (racemic) [Compound 28, (+/−)-(1S,3S)-3-(4-(4-(((cyclopentyl(methyl)carbamoyl)oxy)methyl)-3-methylisothiazol-5-yl)phenoxy)cyclohexane-1-carboxylic Acid], the half-life [1] was > 30 min, the half-life [2] was > 30 min and the IC50 [3] was < 50 nM. The CC50 at 48 h [4] was > 200 µM, the “Cell migration inhibition rate (%)” value [5] was “A (A: 50-70%)” and the half-life [6] was < 30 min.
With `CN(C(=O)OCc1c(-c2ccc(O[C@H]3CCC[C@H](C(=O)O)C3)c(F)n2)cnn1C)C1CCCC1` (racemic) [Compound 62, (+/−)-(1S,3S)-3-((6-(5-(((cyclopentyl(methyl)carbamoyl)oxy)methyl)-1-methyl-1H-pyrazol-4-yl)-2-fluoropyridin-3-yl)oxy)cyclohexane-1-carboxylic Acid] the half-life [1] was > 30 min, the half-life [2] was > 30 min and the IC50 [3] was < 50 nM. The CC50 at 48 h [4] was > 200 µM, the “Cell migration inhibition rate (%)” value [5] was “A (A: 50-70%)” and the half-life [6] was ~30 min.
In the case of `Cc1onc(-c2ccc(O[C@H]3CCC[C@H](C(=O)O)C3)cc2)c1COC(=O)N(C)C1CCCC1` (racemic) [Compound 7, (+/−)-(1S,3S)-3-(4-(4-(((cyclopentyl(methyl)carbamoyl)oxy)methyl)-5-methylisoxazol-3-yl)phenoxy)cyclohexane-1-carboxylic Acid], the half-life [1] is reported as 149 min, the half-life [2] is reported as 109 min and the IC50 [3] is reported as < 50 nM. For the same molecule, the CC50 at 48 h [4] was > 200 µM, the “Cell migration inhibition rate (%)” value [5] was “A (A: 50-70%)” and the half-life [6] was 2.81 min.
In the case of `CN(C(=O)OCc1ocnc1-c1ccc(O[C@H]2CCC[C@H](C(=O)O)C2)cn1)C1CCCC1` (racemic) [Compound 14], the half-life [1] is reported as > 30 min, the half-life [2] is reported as > 30 min and the IC50 [3] is reported as 300 to 10000 nM. For the same molecule, the CC50 at 48 h [4] was > 200 µM, the “Cell migration inhibition rate (%)” value [5] was “C (C: 0-30%)” and the half-life [6] was > 30 min.
Work on `CN(C(=O)OCc1c(-c2ccc(O[C@H]3CCC[C@H](C(=O)O)C3)c(C(F)(F)F)n2)cnn1C)C1CCCC1` (racemic) [Compound 13, (+/−)-(1S,3S)-3-((6-(5-(((cyclopentyl(methyl)carbamoyl)oxy)methyl)-1-methyl-1H-pyrazol-4-yl)-2-(trifluoromethyl)pyridin-3-yl)oxy)cyclohexane-1-carboxylic Acid] yielded a half-life [1] of 213 min, a half-life [2] of 68.8 min and an IC50 [3] of 50 to 300 nM. The CC50 at 48 h [4] was > 200 µM, the “Cell migration inhibition rate (%)” value [5] was “B (B: 30-50%)” and the half-life [6] was 17.2 min.
With `CN(C(=O)OCc1c(-c2ccc(O[C@H]3CCC[C@H](C(=O)O)C3)c(F)c2)cnn1C)C1CCCC1` (racemic) [Compound 20, (+/−)-(1S,3S)-3-(4-(5-(((cyclopentyl(methyl)carbamoyl)oxy)methyl)-1-methyl-1H-pyrazol-4-yl)-2-fluorophenoxy)cyclohexane-1-carboxylic Acid] the half-life [1] was > 30 min, the half-life [2] was > 30 min and the IC50 [3] was < 50 nM. The CC50 at 48 h [4] was > 200 µM, the “Cell migration inhibition rate (%)” value [5] was “B (B: 30-50%)” and the half-life [6] was > 30 min.
With `Cc1nc(-c2onc(C)c2COC(=O)N(C)C2CCCC2)ccc1O[C@H]1CCC[C@H](C(=O)O)C1` (racemic) [Compound 36] the half-life [1] was 340 min, the half-life [2] was 145 min and the IC50 [3] was < 50 nM. For the same molecule, the CC50 at 48 h [4] was > 200 µM, the “Cell migration inhibition rate (%)” value [5] was “A (A: 50-70%)” and the half-life [6] was 28.4 min.
In the case of `Cc1nc(-c2cnn(C)c2COC(=O)N(C)C2CCCC2)ccc1O[C@H]1CCC[C@H](C(=O)O)C1` (racemic) [Compound 16, (+/−)-(1S,3S)-3-((6-(5-(((cyclopentyl(methyl)carbamoyl)oxy)methyl)-1-methyl-1H-pyrazol-4-yl)-2-methylpyridin-3-yl)oxy)cyclohexane-1-carboxylic Acid], the half-life [2] is reported as 619 min, the IC50 [3] is reported as < 50 nM and the CC50 at 48 h [4] is reported as > 200 µM. The “Cell migration inhibition rate (%)” value [5] was “A (A: 50-70%)” and the half-life [6] was 109 min.
For `CN(C(=O)OCc1ocnc1-c1ccc(O[C@H]2CCC[C@H](C(=O)O)C2)cc1)C1CCCC1` (racemic) [Compound 8, (+/−)-(1S,3S)-3-(4-(5-(((cyclopentyl(methyl)carbamoyl)oxy)methyl)oxazol-4-yl)phenoxy)cyclohexane-1-carboxylic Acid], the half-life [1] was > 30 min, the half-life [2] was > 30 min and the IC50 [3] was 300 to 10000 nM. For the same molecule, the CC50 at 48 h [4] was > 200 µM, the “Cell migration inhibition rate (%)” value [5] was “C (C: 0-30%)” and the half-life [6] was > 30 min.
With `CN(C(=O)OCc1c(-c2ccc(O[C@H]3CCC[C@H](C(=O)O)C3)cc2)cnn1C)C1CCCC1` (racemic) [Compound 11, (+/−)-(1S,3S)-3-(4-(5-(((cyclopentyl(methyl)carbamoyl)oxy)methyl)-1-methyl-1H-pyrazol-4-yl)phenoxy)cyclohexane-1-carboxylate] the half-life [1] was > 30 min, the half-life [2] was > 30 min and the CC50 at 48 h [4] was > 200 µM. For the same molecule, the “Cell migration inhibition rate (%)” value [5] was “A (A: 50-70%)” and the half-life [6] was > 30 min.
For `CN(C(=O)OCc1c(-c2ccc(O[C@H]3CCC[C@H](C(=O)O)C3)cn2)ncn1C)C1CCCC1` (racemic) [Compound 19, (+/−)-(1S,3S)-3-((6-(5-(((cyclopentyl(methyl)carbamoyl)oxy)methyl)-1-methyl-1H-imidazol-4-yl)pyridin-3-yl)oxy)cyclohexane-1-carboxylic Acid], the IC50 [3] was 300 to 10000 nM, the CC50 (HepG2 cells) was > 200 µM and the “Cell migration inhibition rate (%)” value [5] was “C (C: 0-30%)”.
For `Cc1nc(-c2cnn(C)c2COC(=O)N(C)C2CCCC2)cnc1O[C@H]1CCC[C@H](C(=O)O)C1` (racemic) [Compound 66], the half-life [1] was 703 min, the half-life [2] was 492 min and the IC50 [3] was < 50 nM. The “Cell migration inhibition rate (%)” value [5] was “B (B: 30-50%)” and the half-life [6] was 93.4 min.
For `CN(C(=O)OCc1ocnc1-c1ccc(O[C@H]2CCC[C@H](C(=O)O)C2)c(F)c1)C1CCCC1` (racemic) [Compound 15, (+/−)-(1S,3S)-3-(4-(5-(((cyclopentyl(methyl)carbamoyl)oxy)methyl)oxazol-4-yl)-2-fluorophenoxy)cyclohexane-1-carboxylic Acid], the half-life [1] was > 30 min, the half-life [2] was > 30 min and the IC50 [3] was 300 to 10000 nM. The CC50 at 48 h [4] was > 200 µM, the “Cell migration inhibition rate (%)” value [5] was “C (C: 0-30%)” and the half-life [6] was > 30 min.
With `CN(C(=O)OCc1c(-c2ccc(O[C@H]3CCC[C@H](C(=O)O)C3)c(C(F)F)n2)cnn1C)C1CCCC1` (racemic) [Compound 63, (+/−)-(1S,3S)-3-((6-(5-(((cyclopentyl(methyl)carbamoyl)oxy)methyl)-1-methyl-1H-pyrazol-4-yl)-2-(difluoromethyl)pyridin-3-yl)oxy)cyclohexane-1-carboxylic Acid] the half-life [1] was 537 min, the half-life [2] was 386 min and the IC50 [3] was < 50 nM. The CC50 at 48 h [4] was > 200 µM, the “Cell migration inhibition rate (%)” value [5] was “B (B: 30-50%)” and the half-life [6] was 44.9 min.
